Test results published in ChEMBL document CHEMBL1122335, “Synthesis of an N-aminopyrazinonium analogue of cytidine” (J Med Chem, 1983).

Experiments:
L1210 [1] = test: Growth inhibition of L1210 cells in culture in the first 48 hours of exposure at a concentration of 1 x 10e-5 M; format: functional; settings: Mus musculus, L1210, 48 h
L1210 [2] = test: Growth inhibition of L1210 cells in culture in the first 48 hours of exposure at a concentration of 5 x 10e-5 M; format: functional; settings: Mus musculus, L1210, 48 h
[3] = Ionization constant of the compound; format: physicochemical
L1210 [4] = test: Growth inhibition of L1210 cells in culture in the first 48 hours of exposure at a concentration of 5 x 10e-6 M; format: functional; settings: Mus musculus, L1210, 48 h

Nn1ccn([C@@H]2O[C@H](CO)[C@@H](O)[C@H]2O)c(=O)c1=O
inhibition at 10 µM (L1210 [1]): 20% | inhibition at 50 µM (L1210 [2]): 25% | pKa [3]: 8.8 | inhibition at 5 µM (L1210 [4]): 15%
